Patent publication US20260325685A1, “Radiopharmaceutical Compositions Targeting Carbonic Anhydrase IX and Uses Thereof” (RayzeBio, Inc., priority 2023, published 2026)

Legend:
human CA-XII = biological target: T1, human CA-XII (Homo sapiens, UniProt O43570); assay: Surface Plasmon Resonance (SPR) binding kinetics to recombinant human CA-XII (Biacore 8K, single-cycle kinetics, 1:1 binding model); conditions: Chelated Metal: Lu-175, 25° C., pH 7.4, read-out: CAXII KD
T1 construct: purchased Creative BioMart CA12-261H
Summary of the method: (§1)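 At 25° C, compound was injected at nine concentrations from 100 to 0.39 nM (PBS-P+ pH 7.4, 1% DMSO) over streptavidin-captured recombinant human CA-IX or CA-XII (1200-1800 RU). Association 120 s, dissociation 1200 s, single-cycle format; association and dissociation constants from 1:1 kinetic fits.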

human CA-IX = biological target: T2, human CA-IX (Homo sapiens, UniProt Q16790); assay: Surface Plasmon Resonance (SPR) binding kinetics to recombinant human CA-IX (Biacore 8K, single-cycle kinetics, 1:1 binding model); conditions: Chelated Metal: Lu-175; SPR, 25° C., pH 7.4; read-out: CAIX KD
T2 construct: purchased Acro CA9-H82E3
Summary of the method: as §1

T1 sequence (O43570 25-354): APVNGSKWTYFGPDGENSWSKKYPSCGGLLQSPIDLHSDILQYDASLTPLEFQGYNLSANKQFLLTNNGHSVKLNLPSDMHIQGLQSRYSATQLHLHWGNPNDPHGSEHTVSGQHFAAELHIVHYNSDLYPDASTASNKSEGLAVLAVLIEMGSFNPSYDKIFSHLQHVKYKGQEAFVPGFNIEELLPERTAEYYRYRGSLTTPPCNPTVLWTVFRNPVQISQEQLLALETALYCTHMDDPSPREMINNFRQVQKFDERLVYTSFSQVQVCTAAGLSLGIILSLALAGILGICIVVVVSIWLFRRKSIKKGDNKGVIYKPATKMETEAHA

| Compound | Kd (human CA-XII) | Kd (human CA-IX) |
| --- | --- | --- |
| NS(=O)(=O)c1nnc(NC(=O)C23CC(c4cn(CCNC(=O)[C@@H]5CN(C(=O)CN6CCN(CC(=O)O)CCN(CC(=O)O)CCN(CC(=O)O)CC6)CCN5C(=O)CNC(=O)C5(C(=O)O)CCN(C(=O)CCC6CCCCCC6)CC5)nn4)(C2)C3)s1.[Lu+3] [Compound 112.7] | > 10 nM | < 1 nM |
| NS(=O)(=O)c1nnc(NC(=O)C23CC(c4cn(CCNC(=O)[C@@H]5CN(C(=O)CN6CCN(CC(=O)O)CCN(CC(=O)O)CCN(CC(=O)O)CC6)CCN5C(=O)CNC(=O)C5(C(=O)O)CCN(C(=O)CC6CC7(CCC7)C6)CC5)nn4)(C2)C3)s1.[Lu+3] [Compound 112.8] | 2.5 to 10 nM | < 1 nM |
| NS(=O)(=O)c1nnc(NC(=O)C23CC(c4cn(CCNC(=O)[C@@H]5CN(C(=O)CN6CCN(CC(=O)O)CCN(CC(=O)O)CCN(CC(=O)O)CC6)CCN5C(=O)CNC(=O)C5(C(=O)O)CCN(C(=O)c6ccc(C7CC7)cc6)CC5)nn4)(C2)C3)s1.[Lu+3] [Compound 112.9] | > 10 nM | < 1 nM |
| NS(=O)(=O)c1nnc(NC(=O)C23CC(c4cn(CCNC(=O)[C@@H]5CN(C(=O)CN6CCN(CC(=O)O)CCN(CC(=O)O)CCN(CC(=O)O)CC6)CCN5C(=O)CNC(=O)C5(C(=O)O)CCN(C(=O)c6n[nH]c7ccccc67)CC5)nn4)(C2)C3)s1.[Lu+3] [Compound 112.10] | > 10 nM | < 1 nM |
| NS(=O)(=O)c1nnc(NC(=O)C23CC(c4cn(CCNC(=O)[C@@H]5CN(C(=O)CN6CCN(CC(=O)O)CCN(CC(=O)O)CCN(CC(=O)O)CC6)CCN5C(=O)CNC(=O)C5(C(=O)O)CCN(C(=O)c6cc(C(F)(F)F)n[nH]6)CC5)nn4)(C2)C3)s1.[Lu+3] [Compound 112.11] | > 10 nM | 2.5 to 10 nM |
| NS(=O)(=O)c1nnc(NC(=O)C23CC(c4cn(CCNC(=O)[C@@H]5CN(C(=O)CN6CCN(CC(=O)O)CCN(CC(=O)O)CCN(CC(=O)O)CC6)CCN5C(=O)CNC(=O)C5(C(=O)O)CCN(C(=O)Cc6ccc(C7CC7)cc6)CC5)nn4)(C2)C3)s1.[Lu+3] [Compound 112.12] | > 10 nM | 1 to 2.5 nM |
| Cc1c(C(F)(F)F)n[nH]c1C(=O)N1CCC(C(=O)O)(C(=O)NCC(=O)N2CCN(C(=O)CN3CCN(CC(=O)O)CCN(CC(=O)O)CCN(CC(=O)O)CC3)C[C@H]2C(=O)NCCn2cc(C34CC(C(=O)Nc5nnc(S(N)(=O)=O)s5)(C3)C4)nn2)CC1.[Lu+3] [Compound 112.13] | > 10 nM | 1 to 2.5 nM |
| NS(=O)(=O)c1nnc(NC(=O)C23CC(c4cn(CCNC(=O)[C@@H]5CN(C(=O)CN6CCN(CC(=O)O)CCN(CC(=O)O)CCN(CC(=O)O)CC6)CCN5C(=O)CNC(=O)C5(C(=O)O)CCN(C(=O)Cc6c[nH]nc6C(F)(F)F)CC5)nn4)(C2)C3)s1.[Lu+3] [Compound 112.14] | > 10 nM | 2.5 to 10 nM |
| NS(=O)(=O)c1nnc(NC(=O)C23CC(c4cn(CCNC(=O)[C@@H]5CN(C(=O)CN6CCN(CC(=O)O)CCN(CC(=O)O)CCN(CC(=O)O)CC6)CCN5C(=O)CNC(=O)C5(C(=O)O)CCN(C(=O)Cc6n[nH]c7ccc(F)cc67)CC5)nn4)(C2)C3)s1.[Lu+3] [Compound 112.15] | > 10 nM | 1 to 2.5 nM |
| NS(=O)(=O)c1nnc(NC(=O)C23CC(c4cn(CCNC(=O)[C@@H]5CN(C(=O)CN6CCN(CC(=O)O)CCN(CC(=O)O)CCN(CC(=O)O)CC6)CCN5C(=O)CNC(=O)C5(C(=O)O)CCN(C(=O)Cc6ccc7[nH]ncc7c6)CC5)nn4)(C2)C3)s1.[Lu+3] [Compound 112.16] | > 10 nM | 2.5 to 10 nM |
| NS(=O)(=O)c1nnc(NC(=O)C23CC(c4cn(C[C@H]5CN(C(=O)CN6CCN(CC(=O)O)CCN(CC(=O)O)CCN(CC(=O)O)CC6)CCN5C(=O)CNC(=O)C5(C(=O)O)CCN(C(=O)Cc6n[nH]c7ccccc67)CC5)nn4)(C2)C3)s1.[Lu+3] [Compound 112.17] | 1 to 2.5 nM | < 1 nM |
| CC(CCCC(=O)N1CCC(C(=O)O)(C(=O)NCC(=O)N2CCN(C(=O)CN3CCN(CC(=O)O)CCN(CC(=O)O)CCN(CC(=O)O)CC3)C[C@H]2C(=O)NCCn2cc(C34CC(C(=O)Nc5nnc(S(N)(=O)=O)s5)(C3)C4)nn2)CC1)(c1ccc(O)cc1)c1ccc(O)cc1.[Lu+3] [Compound 112.18] | > 10 nM | 1 to 2.5 nM |
